Entries after “also recorded” stand apart in the source; their conditions may differ.
Assays:
Rh18 cells = assay: rt-PCR of GLI1 target gene Bcl-2 in GANT-61 treated Rh18 cells; type: cell-based
Description: (§1) High-Capacity RNA-to-cDNA kit (Applied Biosystems) was used to reverse transcribe the isolated RNA. Each reaction tube included up to 2 μg of RNA. The reverse transcription reaction was performed according to manufacturer instructions via the MBS Satellite (0.2 G) Thermal Cycler (ThermoFisher Scientific). The qPCR reaction mix was prepared by adding 12 ng of cDNA from each sample to the PowerUp SYBR Green Master Mix (2×) (Applied Biosystems). qPCR was performed (Standard Cycling Mode, primer Tm<60° C.) via the 7500 Fast Real-Time PCR system [Applied Biosystems]. The 7500 v2.3 software was used for data collection and gene expression comparisons (2^−ΔΔCT method).
(§2) First, to validate the effect of GANT-61 inhibition on GLI1 target genes, rt-PCR on GANT-61 treated Rh18 and Rh41 cells was performed. These cell lines express GLI1.

Rh41 cells = assay: rt-PCR of GLI1 target gene Bcl-2 in GANT-61 treated Rh41 cells; type: cell-based
Description: as §1, §2

hESCs = assay: Marker expression in hESCs maintained in mTeSR1 media with GANT-61; type: cell-based, human; conditions: 5 μM and 20 μM GANT-61, 6 or 12 days
Description: H1 (WA01), a well characterized human embryonic stem cell line,^33 was purchased from WiCell (Madison, WI, www.wicell.org/home/stem-cells/catalog-of-stem-cell-lines/wa01.cmsx). The cells were maintained on Matrigel-coated culture dishes in mTeSR1 medium (STEMCELL Technologies) or StemMACS iPS-Brew XF (Miltenyi Biotec).
as §1
Next, the effect of GANT-61 on GLI1 and SHH pathway members PTCH1 and SMO expression and on pluripotency marker expression in hESCs was evaluated.

H1 hESCs = assay: Spontaneous differentiation of WT H1 hESC in embryoid bodies in the presence of GANT-61, real time PCR; type: cell-based, human
Description: WT H1 hESC single cells were plated onto non-attachment plates and maintained in ESC media without FGF-β in the presence of FBS. Experimental group was cultured in the presence of GANT-61 (Tocris Biosciences, Cat. No. 3191) at concentration of 5 μM, while the control group was cultured in the presence of 5 μM DMSO. Media containing GANT-61 was replaced every other day. Embryoid bodies were collected at days 10 and 20. Markers for the three embryologic lineages were analyzed by real time PCR.
as §1

[1] = test system: GLI1 and GLI2 transcription factors; conditions: cited from earlier work
GLI1 = target: T1, GLI1 (Homo sapiens, UniProt P08151); conditions: between zinc fingers 2 and 3 at sites E119 and E167; cited from earlier work
T1 sequence (P08151 1-1106): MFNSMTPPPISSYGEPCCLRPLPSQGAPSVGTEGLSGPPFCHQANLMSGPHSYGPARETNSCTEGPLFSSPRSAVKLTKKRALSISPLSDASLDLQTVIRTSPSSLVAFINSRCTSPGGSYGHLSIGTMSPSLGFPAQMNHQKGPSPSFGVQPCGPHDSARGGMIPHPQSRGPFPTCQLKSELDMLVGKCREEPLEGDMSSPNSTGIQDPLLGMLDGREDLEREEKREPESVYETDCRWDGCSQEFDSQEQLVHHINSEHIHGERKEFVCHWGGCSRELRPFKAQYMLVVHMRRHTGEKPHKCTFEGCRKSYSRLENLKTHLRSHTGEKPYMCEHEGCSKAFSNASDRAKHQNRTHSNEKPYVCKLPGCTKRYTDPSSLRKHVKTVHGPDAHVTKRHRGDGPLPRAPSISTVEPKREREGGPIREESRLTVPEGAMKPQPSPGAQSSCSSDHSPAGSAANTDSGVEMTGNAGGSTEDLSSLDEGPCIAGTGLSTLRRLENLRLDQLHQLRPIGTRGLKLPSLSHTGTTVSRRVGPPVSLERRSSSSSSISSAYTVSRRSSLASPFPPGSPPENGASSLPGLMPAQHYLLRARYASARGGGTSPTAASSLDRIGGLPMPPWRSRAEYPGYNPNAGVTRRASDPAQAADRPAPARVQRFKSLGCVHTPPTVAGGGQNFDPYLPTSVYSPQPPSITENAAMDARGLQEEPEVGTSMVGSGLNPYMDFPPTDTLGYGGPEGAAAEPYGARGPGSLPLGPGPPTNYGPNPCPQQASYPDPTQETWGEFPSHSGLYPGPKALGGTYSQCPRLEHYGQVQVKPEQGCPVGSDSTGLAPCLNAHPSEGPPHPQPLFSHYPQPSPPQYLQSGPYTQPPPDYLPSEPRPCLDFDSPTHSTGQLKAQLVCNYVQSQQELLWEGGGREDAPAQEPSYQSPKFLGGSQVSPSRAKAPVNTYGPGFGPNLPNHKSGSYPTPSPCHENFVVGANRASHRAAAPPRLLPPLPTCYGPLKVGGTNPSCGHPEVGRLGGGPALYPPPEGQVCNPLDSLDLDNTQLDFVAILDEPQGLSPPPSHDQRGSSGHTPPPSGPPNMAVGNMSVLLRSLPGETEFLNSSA

DNA = conditions: cited from earlier work
[2] = test system: human colon carcinoma cell lines; conditions: panel of 7 human colon carcinoma cell lines; cited from earlier work
[3] = test system: lung adenocarcinoma cell lines; conditions: cited from earlier work
cancer cells = conditions: cited from earlier work
HUVEC cells = conditions: cited from earlier work
[4] = 5 μM GANT-61, day 10 embryoid bodies
[5] = 5 μM GANT-61, during the differentiation process

With `CN(C)c1ccccc1CN1CCCN(Cc2ccccc2N(C)C)C1c1ccncc1` [GANT-61] the Bcl-2 expression (Rh18 cells) was “significant down-regulation”, the Bcl-2 expression (Rh41 cells) was “significant down-regulation” and the GLI1 expression (hESCs) was “no significant differences”. For the same compound, the PTCH1 expression (hESCs) was “no significant differences”, the SMO expression (hESCs) was “no significant differences” and the pluripotency marker expression (hESCs) was “no significant differences”. For the same compound, the “mesodermal commitment of H1 hESCs in embryoid bodies” value (H1 hESCs) was “inhibited”, the GLI1 expression (H1 hESCs; 5 μM GANT-61, day 10) was “down-regulated” and the GLI2 expression (H1 hESCs; 5 μM GANT-61, day 10) was “down-regulated”. For the same compound, the PTCH1 expression (H1 hESCs; 5 μM GANT-61, day 10) was “down-regulated”, the Plakoglobin expression (H1 hESCs; 5 μM GANT-61, day 10) was “down-regulated” and the “expression of pluripotency genes” value (H1 hESCs; 5 μM GANT-61, day 10) was “down-regulated”. The “ectodermal gene expression / differentiation” value (H1 hESCs; [4]) was “decreased; also recorded: inhibited”, the “endodermal gene expression / differentiation” value (H1 hESCs; [4]) was “significantly increased; also recorded: promoted” and the “mesodermal gene expression / differentiation” value (H1 hESCs; [4]) was “significantly increased; also recorded: promoted”. The GLI1 expression (H1 hESCs; 5 μM GANT-61, day 20) was “continued to down-regulate”, the GLI2 expression (H1 hESCs; 5 μM GANT-61, day 20) was “continued to down-regulate” and the PTCH1 expression (H1 hESCs; 5 μM GANT-61, day 20) was “continued to down-regulate”. The endodermal marker expression (H1 hESCs; 5 μM GANT-61, day 20) was “significantly decreased; also recorded: significantly reduced”, the “expression of pluripotency genes” value (H1 hESCs; 5 μM GANT-61, day 20) was “continued to down-regulate” and the mesodermal marker expression (H1 hESCs; 5 μM GANT-61, day 20) was “significantly decreased; also recorded: significantly reduced”. For the same compound, the GLI1 expression (H1 hESCs; [5]) was “significantly down-regulated”, the PTCH1 expression (H1 hESCs; [5]) was “significantly down-regulated” and the “binding of GLI1 and GLI2 transcription factors to DNA” value [1] was “inhibiting the binding”. The “binding to GLI1” value (GLI1) was “binds”, the “binding to DNA” value (DNA) was “does not bind” and the cell death [2] was “extensive cell death”. For the same compound, the cancer initiating phenotype [3] was “effective inhibiting”, the apoptosis (cancer cells) was “increases” and the proliferation (cancer cells) was “reduces”. For the same compound, the stem cell markers (cancer cells) was “reduces”.
In the case of `c1cc(-c2sc(-c3ccncc3)c(-c3ccncc3)c2-c2ccncc2)ccn1` [GANT-58], the “oxytocin induced HIF-1alpha expression” value (HUVEC cells; HUVEC cells) is given as “abrogate” and the “angiogenic capacity of HUVEC cells” value (HUVEC cells) is given as “reduction”.

From patent US20250101430A1, “METHODS OF CANCER TREATMENT BY INHIBITION OF VASCULOGENESIS AND GLI1” (priority 2021, published 2025)
